Source: patent US12534439B2, “Xanthohumol derivatives and methods for making and using” (Oregon State University, priority 2021, dated 2026)

Tested on: HFD-fed C57BL/6J mice
Test: Untargeted cortex LC-MS metabolomics
Format: in vivo
Details: cortex of HFD-fed mice
Procedure: Plasma and Cortex LC-MS Metabolomics. The left and right sides of the cortex were pooled and ground using liquid nitrogen. Cortex samples (approximately 30 mg) were extracted as previously described with slight modifications. Tissues were homogenized with 600 μL of cold 80% acetonitrile with 0.1% formic acid containing 0.2 μg/mL of dopamine-d4 (Sigma-Aldrich, St Louis, MO, USA) and 0.2 μg/mL of chlorpropamide (Sigma-Aldrich, St Louis, MO, USA) using a counter-top bullet blender for 2 min and centrifuged at 20 000 rpm for 10 minutes. Supernatants were transferred to high performance liquid chromatography (HPLC) vials for analysis.
LC-high-resolution mass spectrometry/MS. Data dependent acquisition in both negative and positive ion mode was conducted using a Shimadzu Nexera UPLC system coupled to an AB SCIEX TripleTOF 5600 mass spectrometer (AB SCIEX, Toronto, Canada). Chromatographic separation was conducted using an Inertsil Phenyl-3 column (4.6×150 mm, 100 Å, 5 μm; GL Sciences, Tokyo, Japan). Spray voltage was −4200 V for negative ion mode and 4500 V for positive ion mode acquisition. The injection volume was 3 μL. Metabolite identifications were performed using Progenesis QI software (V2.4.6911) with METLIN plugin V1.0.6499 (NonLinear Dynamics, United Kingdom). Progenesis QI was used for peak picking, retention time correction, data normalization, peak alignment, and metabolite annotations. Metabolites were detected in both ion modes; the one with the lowest coefficient of variation of the QC was kept.

SMILES: COc1cc(O)c(CC=C(C)C)c(O)c1C(=O)/C=C/c1ccc(O)cc1 [XN, xanthohumol]
- Ion intensities, Mean: 1,2-DIPALMITOYL-SN-GLYCEROL: 934.62
- Ion intensities, Mean: 1-Arachidonoyl-glycerophosphoinositol: 645.87
- Ion intensities, Mean: 1-Palmitoyl-2-linoleoyl PE: 1782.31
- Ion intensities, Mean: 2-Pyrrolidinone: 1091.46
- Ion intensities, Mean: 2′-DEOXYURIDINE 5′-MONOPHOSPHATE: 615.86
- Ion intensities, Mean: 3-Methyl-L-histidine: 495.48
- Ion intensities, Mean: 3-PHOSPHO-GLYCERIC ACID: 2094.74
- Ion intensities, Mean: 5-Acetylamino-6-amino-3-methyluracil: 108.09
- Ion intensities, Mean: 5-Methylcytidine: 6615.71
- Ion intensities, Mean: 12-HYDROXYDODECANOIC-ACID: 2479.58
- Ion intensities, Mean: 20-Hydroxy-PGE2: 9703.49
- Ion intensities, Mean: 27-Hydroxycholesterol: 17882.79
- Ion intensities, Mean: ADENOSINE: 42044.83
- Ion intensities, Mean: ADENOSINE 5′-DIPHOSPHORIBOSE: 2010.85
- Ion intensities, Mean: ADENOSINE 5′-MONOPHOSPHATE: 75745.39
- Ion intensities, Mean: ADENOSINE-5′-DIPHOSPHOGLUCOSE: 924.21
- Ion intensities, Mean: ADP: 1070.27
- Ion intensities, Mean: AMINOADIPATE: 211.18
- Ion intensities, Mean: ASCORBATE: 2138.35
- Ion intensities, Mean: ASPARTATE: 1174.88
- Ion intensities, Mean: Acetylcarnitine: 11173.39
- Ion intensities, Mean: Acetylcholine: 1788.61
- Ion intensities, Mean: Adenine: 1575.62
- Ion intensities, Mean: Adenylosuccinate: 482.18
- Ion intensities, Mean: Adenylsuccinic acid: 1871.57
- Ion intensities, Mean: Arachidonic acid: 25496.26
- Ion intensities, Mean: Arachidonic acid ethyl ester: 417.92
- Ion intensities, Mean: Arginine: 1863.90
- Ion intensities, Mean: Aspartic acid: 8381.28
- Ion intensities, Mean: BILIVERDIN: 251.38
- Ion intensities, Mean: CARNITINE: 11992.59
- Ion intensities, Mean: CDP-Ethanolamine: 303.02
- Ion intensities, Mean: CHENODEOXYCHOLATE: 5290.32
- Ion intensities, Mean: CITRATE: 997.79
- Ion intensities, Mean: CMP: 586.09
- Ion intensities, Mean: Carnosine: 929.30
- Ion intensities, Mean: Choline: 7326.72
- Ion intensities, Mean: Creatine: 81660.56
- Ion intensities, Mean: Cysteineglutathione disulfide: 1321.30
- Ion intensities, Mean: Cytidine: 766.86
- Ion intensities, Mean: Cytidine 2′,3′-cyclic phosphate: 419.79
- Ion intensities, Mean: Cytidine diphosphate choline (CDPcholine): 2132.21
- Ion intensities, Mean: D-GLUCOSE 6-PHOSPHATE: 54.37
- Ion intensities, Mean: D-Glucaro-1,4-lactone: 1852.68
- Ion intensities, Mean: D-RIBOSE 5-PHOSPHATE: 119.65
- Ion intensities, Mean: DESMOSTEROL: 16777.33
- Ion intensities, Mean: DIHYDROOROTATE: 129.45
- Ion intensities, Mean: Deoxycytidine: 405.53
- Ion intensities, Mean: Deoxyguanosine: 2552.08
- Ion intensities, Mean: Docosahexaenoic acid: 3528.63
- Ion intensities, Mean: Docosenamide: 22701.50
- Ion intensities, Mean: Dodecanedioic acid: 332.32
- Ion intensities, Mean: ERUCIC ACID: 114.42
- Ion intensities, Mean: ETHANOLAMINE PHOSPHATE: 361.87
- Ion intensities, Mean: Ergothioneine: 433.26
- Ion intensities, Mean: Ethyl nicotinate: 74.78
- Ion intensities, Mean: GLUTAMIC ACID: 7047.98
- Ion intensities, Mean: GLUTAMINE: 18241.11
- Ion intensities, Mean: GUANOSINE 5′-MONOPHOSPHATE: 2052.93
- Ion intensities, Mean: Glutamate: 45779.91
- Ion intensities, Mean: Glutathione: 194624.55
- Ion intensities, Mean: Glycerophosphocholine: 104911.40
- Ion intensities, Mean: Guanosine monophosphate: 482.20
- Ion intensities, Mean: HEPTADECANOATE: 24.77
- Ion intensities, Mean: HISTIDINE: 901.19
- Ion intensities, Mean: Homocarnosine: 433.96
- Ion intensities, Mean: Homoserine: 952.74
- Ion intensities, Mean: Hydroxybutyric acid: 2561.64
- Ion intensities, Mean: Hydroxyphenethylamine: 3489.46
- Ion intensities, Mean: Hypoxanthine: 100.45
- Ion intensities, Mean: Hypusine: 94.62
- Ion intensities, Mean: ISOCITRIC ACID: 2099.31
- Ion intensities, Mean: ISOLEUCINE: 1271.60
- Ion intensities, Mean: Indoleacetaldehyde: 565.25
- Ion intensities, Mean: Inosine: 1426.47
- Ion intensities, Mean: Inosine 5′-monophosphate (IMP): 3551.74
- Ion intensities, Mean: Isostearic acid: 2314.30
- Ion intensities, Mean: L-2-Amino-5-hydroxypentanoicacid: 1771.05
- Ion intensities, Mean: L-OLEOYL-RAC-GLYCEROL: 3415.51
- Ion intensities, Mean: LACTATE: 3374.25
- Ion intensities, Mean: LAUROYLCARNITINE: 384.69
- Ion intensities, Mean: LEUKOTRIENE B4: 49.50
- Ion intensities, Mean: LYSINE: 51.50
- Ion intensities, Mean: Lathosterol: 23593.87
- Ion intensities, Mean: Lipoamide: 70.91
- Ion intensities, Mean: MALATE: 1271.76
- Ion intensities, Mean: Methionine: 1365.89
- Ion intensities, Mean: Methylthioadenosine: 2473.94
- Ion intensities, Mean: Myristoylcarnitine: 1742.03
- Ion intensities, Mean: N,N-dimethyl-Safingol: 638.46
- Ion intensities, Mean: N-(1-Deoxy-1-fructosyl) serine: 3036.19
- Ion intensities, Mean: N-ACETYL-L-ASPARTICACID: 24960.43
- Ion intensities, Mean: N-ACETYLNEURAMINATE: 817.62
- Ion intensities, Mean: N-Acetyl-Glutamic acid: 154.68
- Ion intensities, Mean: N-Acetyl-L-alanine: 1997.71
- Ion intensities, Mean: N-Acetylaspartylglutamic acid: 2179.47
- Ion intensities, Mean: N-Acetylglutamine: 273.18
- Ion intensities, Mean: N-Acetylisoputreanine: 99.54
- Ion intensities, Mean: N-Acetyllactosamine: 308.43
- Ion intensities, Mean: N-Linoleoyl GABA: 57.01
- Ion intensities, Mean: N-Methyl-Glutamate: 2277.43
- Ion intensities, Mean: N-a-Acetyl-Arginine: 175.03
- Ion intensities, Mean: NAD: 532.29
- Ion intensities, Mean: NE,NE,NE-TRIMETHYLLYSINE: 2830.12
- Ion intensities, Mean: Niacinamide: 4607.66
- Ion intensities, Mean: Nicotinamide adenine dinucleotide (NAD): 2094413
- Ion intensities, Mean: O-Phosphoethanolamine: 497.23
- Ion intensities, Mean: Octadecenoic acid: 202.97
- Ion intensities, Mean: Oleamide: 4025.45
- Ion intensities, Mean: Oxidized glutathione: 2115.40
- Ion intensities, Mean: PALMITATE: 1472.32
- Ion intensities, Mean: PALMITOLEIC ACID: 62.02
- Ion intensities, Mean: PANTOTHENIC ACID: 442.74
- Ion intensities, Mean: PETROSELINIC ACID: 220.71
- Ion intensities, Mean: PHENYLALANINE: 2371.34
- Ion intensities, Mean: PHENYLETHANOLAMINE: 1245.94
- Ion intensities, Mean: Phenylpropionylglycine: 294.60
- Ion intensities, Mean: Phosphocholine: 18574.78
- Ion intensities, Mean: Phosphodimethyl-ethanolamine: 161.80
- Ion intensities, Mean: Pipecolic acid: 422.43
- Ion intensities, Mean: Propionylcarnitine: 571.28
- Ion intensities, Mean: Pyridoxamine-5′-Phosphate: 377.92
- Ion intensities, Mean: RAC-GLYCEROL-L-MYRISTATE: 293.55
- Ion intensities, Mean: S-Adenosylhomocysteine: 397.04
- Ion intensities, Mean: S-Adenosylmethionine: 11562.08
- Ion intensities, Mean: SERINE: 355.32
- Ion intensities, Mean: SUCCINATE: 362.22
- Ion intensities, Mean: Spermic acid 1: 178.91
- Ion intensities, Mean: Spermidine: 5406.36
- Ion intensities, Mean: Sphinganine: 34.01
- Ion intensities, Mean: Sphinganine 1-phosphate: 2568.50
- Ion intensities, Mean: Sphingosine: 1322.46
- Ion intensities, Mean: Stearoylglycerophosphoserine: 2006.21
- Ion intensities, Mean: Succinyladenosine: 192.45
- Ion intensities, Mean: TAURINE: 6070.22
- Ion intensities, Mean: THEOPHYLLINE: 18.71
- Ion intensities, Mean: TRYPTOPHAN: 1131.43
- Ion intensities, Mean: Tetradecanedioic acid: 125.75
- Ion intensities, Mean: Tetrahydrodeoxycortisol: 3344.70
- Ion intensities, Mean: Threoninyl-Alanine: 227.23
- Ion intensities, Mean: Tyrosine: 4311.01
- Ion intensities, Mean: URIDINE: 1155.56
- Ion intensities, Mean: URIDINE 5′-DIPHOSPHOGALACTOSE: 462.04
- Ion intensities, Mean: URIDINE-5-MONOPHOSPHATE: 2103.27
- Ion intensities, Mean: Undecanedicarboxylic acid: 236.12
- Ion intensities, Mean: Uracil: 201.36
- Ion intensities, Mean: Uridine 5′-diphosphate: 248.01
- Ion intensities, Mean: Xanthine: 137.03
- Ion intensities, Mean: cyclic GMP-AMP: 1495.60
- Ion intensities, Mean: diethyltoluamide: 8.44
- Ion intensities, Mean: docosa-hexaenoic acid: 3095.80
- Ion intensities, Mean: hydroxyhexadecanoyl carnitine: 1430.92
- Ion intensities, Mean: hydroxyvitamin D3: 16859.40
- Ion intensities, Mean: sn-glycero-3-Phosphoethanolamine: 737.74
